One compound from US20230255904A1, “PHARMACEUTICAL COMPOSITION FOR PREVENTING OR TREATING CANCER COMPRISING NAPHTHOQUINONE-BASED COMPOUND AND IMMUNE CHECKPOINT INHIBITOR AS ACTIVE INGREDIENTS” (NADIANBIO LTD., priority 2020, published 2023) can be followed below.

The subject of one assay is B16F10. Description: Tumor growth inhibition, animal model for skin cancer (B16F10). Format: in vivo,  mice. The protocol: (§1) All mice used in the experiments were raised in a sterile animal room with constant temperature (22° C. to 26° C.) and constant humidity (55% to 60%), acclimatized for 1 week while sufficiently supplying typical solid feed (Samtako Inc., Korea) and water, and then used. All experiments were conducted after obtaining approval from the Institutional Animal Care and Use Committee in accordance with the laboratory animal care and ethics regulations of the Institutional Animal Care and Use Committee of Wonkwang University.
(§2) 7-week-old BALB/c or C57BL/6 mice were used, and subcutaneously inoculated using a 1-mL insulin syringe within 30 minutes after mixing the mouse cancer cells with 0.2 mL of PBS.
After the cancer cell line was subcutaneously implanted, the administration of drugs was started when the size of the cancer reached 50 to 100 mm^3. The volumes (mm^3) of the tumors, which were generated after the inoculation, were measured at intervals of 3 days using a caliper, calculation was performed using the formula of […], and then the results thereof were compared.
In addition, sole administration or co-administration of respective drugs was performed according to the administration schedules listed in Tables 4 to 34 below, the tumor volumes were then measured according to the tumor proliferation assessment method described in Example 1.1, the tumor growth inhibition rates (TGI (O)=(Vc−Vt)/Vc×100(%); Vc: tumor volume of control, Vt tumor volume of experimental group) were calculated based the tumor volumes, and the results thereof are shown in the respective tables and FIGS. 1 to 31.

The next assay concerns 4T1-Luc. Description: Tumor metastasis analysis, photon emission amount after tumor resection (4T1-Luc). Format: in vivo, BALB/c mice. The following applies: Experimental Example 32; 17th day after primary tumor removal; dunnione 40 mg/kg oral daily; anti-CTLA4 antibody 200 μg/head intraperitoneal at intervals of 3 days; mitoxantrone 6 mg/kg intraperitoneal once on 1st day. The protocol:
4T1-Luc (2.5×10^6 cells) as a mouse breast cancer cell line overexpressing a luciferase was implanted into mammary fat pads of BALB/c mice, and the tumor was removed through surgical resection when the size of the cancer reached 150 to 200 mm^3. The administration of drugs was started from the day after the tumor removal procedure, and the degree of cancer metastasis was measured by measuring the photon emission amount at intervals of 1 week from the 3rd day after the tumor removal procedure.
After sole administration or co-administration of respective drugs was performed according to the administration schedule listed in Table 35 below, the photon emission amount (fold) was measured on the 17th day according to the tumor metastasis assessment method described in Example 2.1, and the results thereof are shown in Table 35 and FIG. 32.

The subject of the next assay is KLN205. Description: Tumor growth inhibition, animal model for lung cancer I (KLN205). Format: in vivo, DBA/2 mice. The note with it: Experimental Example 30, dunnione 40 mg/kg oral daily from 5th day, anti-PD-1 antibody 100 μg/head, carboplatin 25 mg/kg + paclitaxel 10 mg/kg intraperitoneal 2 times a week, 4 times in total. The protocol: as §1, §2
(§3) After the cancer cell line was subcutaneously implanted, the administration of drugs was started when the size of the cancer reached 50 to 100 mm^3. The volumes (mm^3) of the tumors, which were generated after the inoculation, were measured at intervals of 3 days using a caliper, calculation was performed using the formula of […], and then the results thereof were compared. […]

In another assay the test system is CT26. Description: Tumor growth inhibition, animal model for colorectal cancer II (CT26). Format: in vivo,  mice. The following applies: Dunnione 40 mg/kg oral every day from 6th day, 4 times. The protocol:
as §1, §2, §3

With `CC1OC2=C(C(=O)C(=O)c3ccccc32)C1(C)C` (centres unmarked) [Dunnione, 2,3,3-trimethyl-2H-benzo[g][1]benzofuran-4,5-dione], the “TGI (%)” value in the assay on B16F10 (Experimental Example 21, Dunnione 40 mg/kg oral every day from 6th day, Anti-PD-L1 antibody 200 μg/head i.p. 2 times a week from 6th day, 3 times) worked out at 24.1%; in the assay on B16F10 (Experimental Example 22, Dunnione 40 mg/kg oral every day from 6th day, Anti-PD-L1 antibody 200 μg/head i.p. 2 times a week from 6th day, 3 times, Paclitaxel 14 mg/kg i.p. at intervals of 1 week from 6th day, 2 times), 24.1%; with B16F10 (Experimental Example 23, Dunnione 40 mg/kg oral every day from 6th day, Anti-CTLA4 antibody 200 μg/head i.p. 2 times a week from 6th day, 4 times, Paclitaxel 14 mg/kg i.p. once on 6th day) it was 16.7%; in the assay with B16F10 (Experimental Example 24, Dunnione 40 mg/kg oral every day from 7th day, Anti-CTLA4 antibody 100 μg/head i.p. 2 times a week from 7th day, 2 times, Regorafenib 3 mg/kg oral every day from 7th day) it was 9.2%; with B16F10 (Experimental Example 25, Dunnione 40 mg/kg oral every day from 8th day, Anti-PD-1 antibody 100 μg/head i.p. 2 times a week from 8th day, 3 times, Vistusertib 15 mg/kg oral every day from 8th day), 34.6%; in the assay on B16F10 (Experimental Example 26, Dunnione 40 mg/kg oral every day from 8th day, Everolimus 0.5 mg/kg oral every day from 8th day), 31.5%. The “TGI (%)” value in the assay on B16F10 (Experimental Example 27, Dunnione 40 mg/kg oral every day from 8th day, Anti-PD-1 antibody 100 μg/head i.p. 2 times a week from 8th day, 3 times, Everolimus 0.5 mg/kg oral every day from 8th day) is 34.6%; in the assay on KLN205, 10.2%; in the assay with CT26 (Experimental Example 8, Irinotecan 4.626 mg/kg + Leucovorin 10.28 mg/kg + 5-Fluorouracil 61.68 mg/kg i.p. 2 times a week from 6th day), 21.2%; in the assay with CT26 (Experimental Example 9, Anti-PD-1 antibody 200 μg/head i.p. 2 times a week from 6th day) it was 25.5%. Also, in the assay on 4T1-Luc, the Photon emission amount was 2805.3 ± 2352.3 fold.
